Reference: paper PMC5889910, “β-Carboline Silver Compound Binding Studies with Human Serum Albumin: A Comprehensive Multispectroscopic Analysis and Molecular Modeling Study” (Bioinorganic Chemistry and Applications, 2018)

Legend:
[1] = target: T1, human serum albumin (HSA) (Homo sapiens, UniProt P02768); test: Fluorescence quenching of HSA with addition of extra anions (KClO4, KNO3); assay type: binding; details: for effect of anion salt alone on HSA structure: without Ag and Hnor, up to the concentration maximum used in the experiments; for K SV / K, binding constant / n, number of binding sites: HSA 5 µM
T1 construct: I (residues 1–195), II (196–383), and III (384–585); purchased Sigma
Experimental: (§1) The samples of HSA were prepared in 20 mM phosphate buffer (pH 7.4), whereas silver complexes (1 mM) stock solution were prepared in DMSO and further diluted in 20 mM phosphate buffer to reach the desired concentration. In all the samples, the final concentration of DMSO was not more than 1%. The concentration of HSA was determined using the Beer–Lambert law with the molar extinction coefficient of 36500 M^−1·cm^−1 at 280 nm. To study structural changes in HSA by the addition of [Ag(I)(Hnor)2](anion) compounds, the UV absorption spectra were measured, by variation of the concentration of the [Ag(I)(Hnor)2](anion) compounds, while keeping the concentration of HSA constant. UV absorption spectra, from 240 nm to 320 nm, were recorded on a Perkin–Elmer Lambda 45 spectrophotometer at 25°C. Quartz cuvettes of 1 cm path length were used for the measurements. Fluorescence measurements were performed on a Hitachi spectrofluorometer (Model F 7000) equipped with a PC. The fluorescence spectra were collected at 25°C with a path length cell of 1 cm. The slit width used was 5 nm with a protein concentration of 5 µM. The used excitation wavelength for the protein was 295 nm.
Given the fact that the highest anticancer activity and also the most substantial HSA interaction takes place in case of the perchlorate and nitrate salts, it was decided to add extra perchlorate (and also nitrate) for all cases and to study the effect on the binding affinity. So, we carried out two sets of experiments and studied the binding propensity of Ag(I) compounds with HSA. In one experiment, the extra ClO4 ^− anion was added in a 1 : 4 ratio, compared to the Ag compound. In a second experiment, we used additional nitrate together with the Ag(I) compounds. Details are given in Figures 6 and 7, and the quite similar details for the other 3 compounds are presented in Figures S5 and S6 in Supplementary Materials.
To determine the role of only the anions (i.e., without Ag and Hnor), we also used KClO4 and KNO3 and studied their HSA binding by adding variable amounts of anions to the concentration maximum used in the experiments. […] When the extra anions + compounds were titrated, the results obtained did show an exponential increase in binding affinity of the Ag(I) compounds.
The binding strength was evaluated by calculating the Stern–Volmer constant (K sv), a number of the binding sites (n) and Gibbs free energy (ΔG); (Table 2). […] However, no correlation with the size of these four anions is seen.

[2] = target: T1, human serum albumin (HSA); test: UV absorption spectra of HSA with Ag(I) compounds; assay type: binding; details: HSA 5 µM, with hyperchromism
Experimental: as §1
(§2) All the spectra were recorded after equilibration of the reaction mixture for 5 min.

[3] = target: T1, human serum albumin (HSA); test: Fluorescence quenching titration of HSA (Stern–Volmer analysis); assay type: binding; details: for K SV, Stern–Volmer quenching constant: 20 mM phosphate buffer pH 7.4, 25°C, excitation 295 nm; for redshift at the maximal emission wavelength of Tyr and Trp residues of HSA: increasing compound concentration; for K q, bimolecular quenching rate constant: Kq = KSV/τ0, τ0 = 10^−8 s, 25°C; for ∆G, standard free energy change of binding: ΔG = −2.303 RT logK
Experimental: as §1, §2
The interaction between metal compounds and proteins has been widely investigated by using fluorescence spectroscopies. The luminescence response of HSA, upon addition of different concentrations of Ag(I) compounds, was studied in 20 mM phosphate buffer by using an emission titration experiment. Preliminary luminescence studies of the four starting Ag compounds 1–4 have been reported earlier by some of us. The excitation at 290 nm for all four compound results in a strong luminescence band at around 370 nm. The fluorescence studies of the ligand “Hnor” as well as the free silver salt, “AgNO3,” were also studied under the same conditions to compare the effect of separate entities with a combination of the two. Upon excitation at 295 nm, fluorescence intensity around 340 nm is known to reflect the changes of the tryptophan residue microenvironment. […] In Figure S3, similar data are presented for compounds 2–4, with only marginal differences upon anion variation.
The interaction of the Ag compounds with HSA was quantified; the Stern–Volmer equation has been employed:(1) F0/F=1+KSVQ=1+Kqτ0Q, where F 0 and F are the steady-state fluorescence intensities in the absence and presence of quencher at 340 nm, respectively. K sv is the Stern–Volmer quenching constant, K q stands for bimolecular quenching constant, τ 0 is the lifetime of the fluorophore in the absence of quencher, and [Q] is the concentration of quencher (i.e., the Ag compound). By calculating the quenching rate constants, K q, one can distinguish between the static quenching and the dynamic quenching, and this was evaluated by using the following equation:(2) Kq=KSV/τ0.
The value of tau(zero), τ 0, for biopolymers is known to be 10^−8 s. The Stern–Volmer quenching constant (K sv) for the fluorometric titration of the Ag(I) compounds into HSA solution was calculated from the linear relationship between F 0/F and [Ag(I)(Hnor)2]ClO4 (Figure 5) and enlisted in Table 1. In Figure S4, similar data are presented for compounds 2–4, confirming the above observations.
The equilibrium between free and bound molecules, when small molecules bind independently to a set of similar sites on a macromolecule, was ascertained by a modified Stern–Volmer equation [42]:(3) logF0−F/F=logK+n logQ, where K and n are the binding constant and the number of binding sites, respectively. A plot of log(F 0 − F/F) versus log[Q] was used to determine the value of K and n (inset in Figure 5). Several forces, like electrostatic, hydrogen bonds, weak van der Waals, hydrophobic, and steric contacts, can be thought of being responsible for the interaction between the albumin and Ag compounds. […]

[4] = target: T1, human serum albumin (HSA); test: Far-UV circular dichroism of HSA, α-helix content; assay type: binding; set-up: unit of the concentration uncertain; details: HSA 20 µM, free HSA 67.03
Experimental: CD measurements were carried out on a Jasco spectropolarimeter (Model J-815) equipped with a microcomputer. The instrument was calibrated with D-10-camphorsulfonic acid. All the CD measurements were performed at 25°C with a thermostatically controlled cell holder, attached to a Neslab RTE-110 water bath with an accuracy of ±0.1°C. Spectra were collected with a scan speed of […] and a response time of 1 s. Each spectrum was taken as the average of three scans. The far-UV CD spectra were measured at a protein concentration of 20 µM at a path length of 1 cm.
as §2
The CD signal, expressed in millidegree, obtained over the wavelength range of 190–250 nm, was converted to a mean residue ellipticity (MRE, θ), using the following conversion:(5) MRE=θobs mdeg/10×n×Cp×l, where θ obs is the CD in millidegree, the number of amino acid residues (585) is given by n, “l” is the path length (cm), and C p is the molarity. The unit of MRE is deg·cm^2·dmol^−1.

[5] = test system: two different cancer cell lines; set-up: method as in PMID 25042730; details: previous study; cited from earlier work
[6] = modified Stern–Volmer equation, HSA 5 µM, pH 7.4, 25°C
[7] = Set A: +extra ClO4− (KClO4, 1:4 ratio)
[8] = Set B: +extra NO3− (KNO3, 1:4 ratio)
[9] = compound concentration 20 (unit uncertain)
[10] = compound concentration 40 (unit uncertain)
[11] = compound concentration 60 (unit uncertain)
[12] = compound concentration 80 (unit uncertain)
[13] = compound concentration 100 (unit uncertain)

T1 sequence (P02768 25-609): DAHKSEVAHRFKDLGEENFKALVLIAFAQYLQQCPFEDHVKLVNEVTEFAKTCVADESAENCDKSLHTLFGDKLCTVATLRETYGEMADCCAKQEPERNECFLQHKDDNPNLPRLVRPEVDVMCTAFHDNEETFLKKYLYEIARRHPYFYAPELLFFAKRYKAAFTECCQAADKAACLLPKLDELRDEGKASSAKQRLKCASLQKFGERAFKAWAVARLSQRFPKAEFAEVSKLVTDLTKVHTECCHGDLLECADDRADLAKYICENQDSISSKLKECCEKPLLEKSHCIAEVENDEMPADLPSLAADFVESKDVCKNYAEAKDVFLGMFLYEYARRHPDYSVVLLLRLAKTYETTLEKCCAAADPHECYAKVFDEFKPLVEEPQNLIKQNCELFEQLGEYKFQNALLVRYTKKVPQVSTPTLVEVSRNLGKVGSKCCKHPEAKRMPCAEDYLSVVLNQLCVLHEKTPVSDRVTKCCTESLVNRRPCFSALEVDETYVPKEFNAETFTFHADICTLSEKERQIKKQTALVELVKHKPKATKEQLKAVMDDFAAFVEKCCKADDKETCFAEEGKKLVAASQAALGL

Row | SMILES | redshift (bathochromic effect) of HSA UV absorbance [2] [nm] | K SV, Stern–Volmer quenching constant ([3]; HSA 5 µM) | redshift at the maximal emission wavelength of Tyr and Trp residues of HSA ([3]; HSA 5 µM) [nm] | K q, bimolecular quenching rate constant ([3]; HSA 5 µM) | K, binding constant [3, 6] | n, number of binding sites [3, 6] | ∆G, standard free energy change of binding [3] [kcal/mol] | K SV [1, 7] | K, binding constant [1, 7] | n, number of binding sites [1, 7] | ∆G [1, 8] [kcal/mol] | K SV [1, 8] | K, binding constant [1, 8] | n, number of binding sites [1, 8] | % α-helix of HSA [4, 9] [%] | % α-helix of HSA [4, 10] [%] | % α-helix of HSA [4, 11] [%] | % α-helix of HSA [4, 12] [%] | % α-helix of HSA [4, 13] [%] | also measured
1 | O=[N+]([O-])[O-].[K+] [KNO3, reference compound] |  |  |  |  |  |  |  |  |  |  |  |  |  |  |  |  |  |  |  | effect of anion salt alone on HSA structure [1]: negligible perturbance of the HSA structure
2 | [K+].[O-][Cl+3]([O-])([O-])[O-] [KClO4, reference compound] |  |  |  |  |  |  |  |  |  |  |  |  |  |  |  |  |  |  |  | effect of anion salt alone on HSA structure [1]: negligible perturbance of the HSA structure
3 | F[B-](F)(F)F.[Ag+].c1ccc2c(c1)[nH]c1cnccc12.c1ccc2c(c1)[nH]c1cnccc12 [Compound 4, [Ag(Hnor)2](BF4)] | 6 | 3.97 10^5 M^−1 | 4 | 39.7 10^12 M^−1·s^−1 | 1.14 10^6 M^−1 | 1.1 | -8.258 | 1.85 10^7 M^−1 | 1.19 10^10 M^−1 | 1.69 | -13.07 | 1.38 10^7 M^−1 | 0.38 10^10 M^−1 | 1.48 | 65.25 | 63.82 | 61.53 | 56.66 | 47.52 | 
4 | CC#N.F[P-](F)(F)(F)(F)F.[Ag+].c1ccc2c(c1)[nH]c1cnccc12.c1ccc2c(c1)[nH]c1cnccc12 [Compound 3, [Ag(Hnor)2(MeCN)](PF6)] | 5 | 4.53 10^5 M^−1 | 4 | 45.3 10^12 M^−1·s^−1 | 0.55 10^6 M^−1 | 1.2 | -7.823 | 0.84 10^7 M^−1 | 0.46 10^10 M^−1 | 1.55 | -12.19 | 0.80 10^7 M^−1 | 0.08 10^10 M^−1 | 1.41 | 63.57 | 62.57 | 60.37 | 56.31 | 47.18 | ∆G [1, 7]: -13.18 kcal/mol
5 | c1ccc2c(c1)[nH]c1cnccc12 [Hnor, 9H-pyrido[3,4-b]indole, reference compound] |  | 2.95 10^5 M^−1 |  | 29.5 10^12 M^−1·s^−1 |  | 1.0 | -7.505 |  |  |  |  |  |  |  |  |  |  |  |  | Kd ([3]; modified Stern–Volmer equation, HSA 5 µM, pH 7.4, 25°C, read-out: K, binding constant (converted)): 3.03 µM
6 | [Ag+].[O-][Cl+3]([O-])([O-])[O-].c1ccc2c(c1)[nH]c1cnccc12.c1ccc2c(c1)[nH]c1cnccc12 [Compound 1, [Ag(Hnor)2](ClO4)] | 7 | 5.37 10^5 M^−1 | 7 | 53.7 10^12 M^−1·s^−1 | 3.74 10^6 M^−1 | 1.1 | -8.963 | 2.21 10^7 M^−1 | 17.2 10^10 M^−1 | 1.77 | -14.4 | 2.06 10^7 M^−1 | 3.64 10^10 M^−1 | 1.64 | 64.07 | 62.23 | 58.59 | 50.18 | 35.63 | ∆G [1, 7]: -15.33 kcal/mol; anticancer activity [5]: comparable to cisplatin
7 | O=[N+]([O-])[O-].[Ag+].c1ccc2c(c1)[nH]c1cnccc12.c1ccc2c(c1)[nH]c1cnccc12 [Compound 2, [Ag(Hnor)2](NO3)] | 5 | 5.34 10^5 M^−1 | 5 | 53.4 10^12 M^−1·s^−1 | 3.64 10^6 M^−1 | 1.0 | -8.948 | 1.29 10^7 M^−1 | 6.05 10^10 M^−1 | 1.58 | -13.4 | 1.24 10^7 M^−1 | 0.66 10^10 M^−1 | 1.53 | 62.85 | 61.61 | 58.41 | 52.02 | 42.73 | 
8 | O=[N+]([O-])[O-].[Ag+] [AgNO3, reference compound] |  | 3.10 10^5 M^−1 |  | 31.0 10^12 M^−1·s^−1 | 1.94 10^6 M^−1 | 1.1 | -8.576 |  |  |  |  |  |  |  |  |  |  |  |  | 
